Measurements as given in US5541232A, “Treatment of multidrug resistant diseases” (Chemex Pharmaceuticals, Inc., priority 1994, dated 1996).

Tests used:
[1] = system: human breast adenocarcinoma; conditions: cited from earlier work
Lung (LX-1) cancer cells = experiment: in vitro cytotoxicity anti tumor activity; type: cell-based; conditions: 1 h
[2] = system: Hs 68 Newborn Foreskin Fibroblasts; experiment: in vitro cytotoxicity, normal cells; type: cell-based; conditions: Homo sapiens
WI-38 Lung Fibroblasts = experiment: in vitro cytotoxicity, normal cells; type: cell-based; conditions: Homo sapiens
[3] = system: Detroit 551 Skin Fibroblasts; experiment: in vitro cytotoxicity, normal cells; type: cell-based; conditions: Homo sapiens
CAK-1 Renal cancer cells = experiment: in vitro cytotoxicity anti tumor activity; type: cell-based
[4] = system: MCF7/0 human breast adenocarcinoma cells; experiment: flow cytometry P-glycoprotein function assay of doxorubicin efflux, MCF7/0 (doxorubicin sensitive); type: cell-based
Protocol: (§1) The following tests were preformed to determine the effect of NDGA on efflux of doxorubicin (hereinafter sometimes referred to as DOX) for doxorubicin sensitive MCF7/0 and doxorubicin resistant MCF7/ADR human breast adenocarcinoma cells in vitro.
(§2) The cells were exposed to 50 μg/ml NDGA for 24 hrs prior to loading with DOX (doxorubicin) at 37° C. […] PBS. Flow analysis of cell efflux of DOX was collected over 30 minutes using the time parameter.
(§3) Procedure for P-Glycoprotein (PGP) Function Assay of Doxorubicin Efflux is shown hereunder.
(§4) 1. […] Store at room temperature.
(§5) 2. Doxorubicin (GFW=580) Make a solution of doxorubicin to contain 10 μg/ml. Store frozen at 0° C.
(§6) 4. NDGA (MW=302.36) Make a solution of NDGA to contain 50 μg/ml. Store frozen at 0° C.
(§7) 5. MCF7/0 (Doxorubicin sensitive) and MCF7/ADR (Doxorubicin resistant), human breast adenocarcinoma cell lines.
(§8) 1. Make up 2×10^6 cells per ml in PBS. Expose 1 ml of cells to 50 μg of NDGA for 24 hrs at 37° C. prior to loading with Doxorubicin.
(§9) 2. Add 1 ml of 10 μg/ml doxorubicin, mix and divide into two aliquots.
(§10) 4. Incubate both tubes at 37° C. for 30 minutes.
(§11) 5. Centrifuge the tubes at 37° C. for 5 minutes on a fast spin to pellet cells. Resuspend in 1 ml of buffer.
(§12) 6. Run immediately on the flow cytometer. Excitation 488 nm, emission 560-600 nm. Collect forward and 90° side scatter and PMT4 linear scale. Collect 10,000-50,000 events and calculate the mean channel fluorescence (MCF) for PMT4.
(§13) 7. Run both samples as close together as possible, and avoid prolonged exposure to room temperature.

[5] = system: OVCAR3 ovarian cancer cells; experiment: in vitro cytotoxicity anti tumor activity; type: cell-based; conditions: Homo sapiens
[6] = system: Lung (NCI-H23) cancer cells; experiment: in vitro cytotoxicity anti tumor activity; type: cell-based; conditions: Homo sapiens
[7] = system: MCF7/ADR human breast adenocarcinoma cells; experiment: flow cytometry P-glycoprotein function assay of doxorubicin efflux, MCF7/ADR (doxorubicin resistant); type: cell-based
Protocol: as §1, §2, §3, §4, §5, §6, §7, §8, §9, §10, §11, §12, §13

LOX-IMVI Melanoma cells = experiment: in vitro cytotoxicity anti tumor activity; type: cell-based; conditions: Homo sapiens
SNB Glioblastoma cells = experiment: in vitro cytotoxicity anti tumor activity; type: cell-based
DLD-1 Colon cancer cells = experiment: in vitro cytotoxicity anti tumor activity; type: cell-based; conditions: Homo sapiens
[8] = system: KB-3-1 human cervical carcinoma cells; experiment: inhibition of colony formation, KB-3-1; type: cell-based; conditions: KB 3-1, 240 h, read-out: IC50 (VBL), 50% inhibition of colony formation
Excerpt: (§14) To investigate whether masoprocol modulates multidrug resistance, a line of multidrug resistant (GRC-1) cells which were derived from parenteral drug sensitive human cervical carcinoma (KB-3-1) cells by transfection of the mdr1 genes were employed. Such transfection was by the method set forth in Choi, et al., Cell 53:519-529, 1989. These cell lines differ only with respect to the over-expression of P-glycoprotein. These tests were designed to examine whether masoprocol modulates tumor cell drug resistance by interfering with P-glycoprotein function. […] See, Regulation of initial vinblastine influx by P-glycoprotein, Shalinsky, et al., cited above.
Masoprocol was provided by Chemex Pharmaceuticals, Inc. (Fort Lee, N.J.). Tritiated vinblastine ([^3 H]VBL) (10 Ci mmol^-1) was purchased from Moravek Biochemicals (Brea, Calif.), stored in the dark at -80° C. and protected from light during the experiments. […]
(§15) First, cells which had been seeded at 200-300 cells/dish were incubated in media containing masoprocol or VBL. After an incubation period of 10 days at 37° C. the cells were fixed with methanol and stained with Giemsa, and the number of colonies per dish were counted and expressed as a percent of the number of colonies in control conditions. […] Parenthesis indicate standard deviations determined from replicate experiments.

P-glycoprotein [9] = conditions: known, Shalinsky et al.; cited from earlier work
P-glycoprotein [10] = conditions: cited from earlier work
[11] = system: GRC-1 multidrug resistant human cervical carcinoma cells; experiment: inhibition of colony formation, GRC-1; type: cell-based
Excerpt: as §14
Masoprocol was provided by Chemex Pharmaceuticals, Inc. (Fort Lee, N.J.). Tritiated vinblastine ([^3 H]VBL) (10 Ci mmol^-1) was purchased from Moravek Biochemicals (Brea, Calif.), stored in the dark at -80° C. and protected from light during the experiments. Dipyridamole (DPM) was provided by Boerhinger Ingelheim Pharmaceuticals, Inc. (Ridgefield, Conn.).
Drug-sensitive KB-3-1 cells and the drug resistant subline (KB-GRC-1) were obtained from Dr. Igor Roninson (University of Illinois, College of Medicine, Chicago, Ill.). Cells were maintained in Dulbecco's modified Eagle's medium supplemented with 10% fetal bovine serum and 2 mM glutamine. The KB-GRC-1 cells were maintained in medium supplemented with 6 ng/ml colchicine.
as §15

[12] = No NDGA, DOX + Verapamil (30 μl of a 1 mM solution)
[13] = No NDGA, DOX alone, 5 μg×30 min, 37° C.
[14] = RX NDGA (50 μg/ml, 24 hrs), DOX
[15] = RX NDGA (50 μg/ml, 24 hrs), DOX + Verapamil

Compound: C[C@@H](Cc1ccc(O)c(O)c1)[C@@H](C)Cc1ccc(O)c(O)c1 (relative stereo) [d,l NDGA]
- effectiveness against human breast adenocarcinoma [1]: particularly effective

Compound: COc1cc(CC(C)C(C)Cc2ccc(O)c(OC)c2)ccc1O (centres unmarked) [1,4-bis(3'-methoxy-4'-hydroxyphenyl)-2,3-dimethyl butane]
- effectiveness against human breast adenocarcinoma [1]: particularly effective

Compound: COc1cc(CCCCc2ccc(O)c(OC)c2)ccc1O [1,4-bis(3'-methoxy-4'-hydroxyphenylbutane]
- effectiveness against human breast adenocarcinoma [1]: particularly effective

Compound: Oc1ccc(CCCCc2cc(O)c(O)c(O)c2)cc1O [1-(3',4'-dihydroxyphenyl)-4(3',4',5'-trihydroxyphenyl)-butane]
- effectiveness against human breast adenocarcinoma [1]: particularly effective

Compound: Oc1ccc(CCCCc2ccc(O)c(O)c2O)cc1O [1-(3',4'-dihydroxyphenyl)-4-(2',3',4'-trihydroxphenyl)-butane]
- effectiveness against human breast adenocarcinoma [1]: particularly effective

Compound: Oc1ccc(O)c(CCCCc2ccc(O)c(O)c2)c1 [1-(3',4'-dihydroxyphenyl)-4-(2',5'-dihydroxyphenyl)-butane]
- effectiveness against human breast adenocarcinoma [1]: particularly effective

Compound: Oc1ccc(CCCCc2ccccc2)cc1O [1-(3',4'-dihydroxyphenyl)-4-phenyl butane]
- effectiveness against human breast adenocarcinoma [1]: particularly effective

Compound: COc1cccc2c1C(=O)c1c(O)c3c(c(O)c1C2=O)C[C@@](O)(C(=O)CO)C[C@@H]3O[C@H]1C[C@H](N)[C@H](O)[C@H](C)O1 [Doxorubicin]
- IC50 (Lung (LX-1) cancer cells): 26000 nM
- IC50 ([2]; Hs68, 1 h): 11600 nM
- IC50 ([2]; Hs68, 70 h): 120 nM
- IC50 (WI-38 Lung Fibroblasts; WI-38, 1 h): 10000 nM
- IC50 (WI-38 Lung Fibroblasts; WI-38, 70 h): 600 nM
- IC50 ([3]; Detroit 551, 1 h): 3200 nM
- IC50 ([3]; Detroit 551, 70 h): 5500 nM
- IC50 (CAK-1 Renal cancer cells; 1 h): 3800 nM
- IC50 (CAK-1 Renal cancer cells; 70 h): 110 nM
- Mean channel fluorescence (loading of DOX in cells) [4, 12]: 312.8
- Mean channel fluorescence (loading of DOX in cells) [4, 13]: 318.7
- Mean channel fluorescence (loading of DOX in cells) [4, 14]: 460.4
- Mean channel fluorescence (loading of DOX in cells) [4, 15]: 435.6
- IC50 ([5]; OVCAR-3, 1 h): 13800 nM
- IC50 ([5]; OVCAR-3, 70 h): 700 nM
- IC50 ([6]; NCI-H23, 1 h): 9300 nM
- IC50 ([6]; NCI-H23, 70 h): 150 nM
- Mean channel fluorescence (loading of DOX in cells) [7, 12]: 309.9
- Mean channel fluorescence (loading of DOX in cells) [7, 13]: 227.4
- Mean channel fluorescence (loading of DOX in cells) [7, 14]: 285.6
- Mean channel fluorescence (loading of DOX in cells) [7, 15]: 365.4
- IC50 (LOX-IMVI Melanoma cells; 1 h): 4800 nM
- IC50 (LOX-IMVI Melanoma cells; 70 h): 90 nM
- IC50 (SNB Glioblastoma cells; 1 h): 700 nM
- IC50 (SNB Glioblastoma cells; 70 h): 30 nM
- IC50 (DLD-1 Colon cancer cells; DLD-1, 1 h): 3700 nM
- IC50 (DLD-1 Colon cancer cells; DLD-1, 70 h): 420 nM

Compound: CC(=O)Oc1ccc(C[C@@H](C)[C@@H](C)Cc2ccc(OC(C)=O)c(OC(C)=O)c2)cc1OC(C)=O [NDGA Tetracetate]
- effectiveness against human breast adenocarcinoma [1]: particularly effective

Compound: CCC(=O)Oc1ccc(C[C@@H](C)[C@@H](C)Cc2ccc(OC(=O)CC)c(OC(=O)CC)c2)cc1OC(=O)CC [NDGA Tetrapropionate]
- effectiveness against human breast adenocarcinoma [1]: particularly effective

Compound: CC[C@]1(O)C[C@@H]2CN(CCc3c([nH]c4ccccc34)[C@@](C(=O)OC)(c3cc4c(cc3OC)N(C)[C@H]3[C@@](O)(C(=O)OC)[C@H](OC(C)=O)[C@]5(CC)C=CCN6CC[C@]43[C@@H]65)C2)C1 [VBL]
- IC50 [8]: 1.38 nM
- P-glycoprotein substrate (P-glycoprotein [9]): known to be a P-glycoprotein substrate
- steady state accumulation and efflux in cells overexpressing mdr1 (P-glycoprotein [10]): decreased steady state accumulation and increased efflux
- sensitivity of GRC-1 compared with KB-3-1 cells ([11]; GRC-1 vs KB-3-1): large differences in sensitivity
- IC50 ([11]; Homo sapiens, 240 h, read-out: IC50 (VBL), 50% inhibition of colony formation): 52.2 nM
